According to patent publication US10501514B2, “Cyclic galanin-analogs and uses thereof” (LanthioPep B.V., priority 2015, dated 2019):
Read-outs that look alike come from different tables or passages of the source.

How the values were obtained:
GalR1 [1] = biological target: T1, GalR1 (Homo sapiens, UniProt P47211)
T1 sequence (P47211 1-349): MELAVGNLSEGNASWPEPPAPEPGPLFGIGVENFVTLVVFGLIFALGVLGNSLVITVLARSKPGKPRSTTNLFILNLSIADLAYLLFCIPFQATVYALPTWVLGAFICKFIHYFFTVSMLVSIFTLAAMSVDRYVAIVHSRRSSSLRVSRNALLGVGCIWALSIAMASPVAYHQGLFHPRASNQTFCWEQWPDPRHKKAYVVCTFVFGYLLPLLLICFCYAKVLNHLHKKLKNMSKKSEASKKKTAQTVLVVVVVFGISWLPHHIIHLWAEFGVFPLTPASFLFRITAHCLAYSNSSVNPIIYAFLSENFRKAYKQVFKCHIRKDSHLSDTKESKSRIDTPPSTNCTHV
Procedure: (§1) The biological activity of the (lanthi)galanins was determined in CHO-K1 cell lines that express either the GalR1, or GalR2 receptor. Activity measurements were performed using commercial kits from DiscoverX for determining arrestin recruitment (GalR1, GalR2) and inhibition of cAMP synthesis (GalR1). In addition, HEK293 cell lines that express the GalR2 receptor have been used for methods from Molecular Probes to measure calcium efflux (GalR2).
(§2) ND indicates ‘not determined’.
(§3) Peptide was dissolved in 0.3% ammonia. Peptides were incubated o/n at 37° C. for the introduction of the lanthionine via base assisted sulfur extrusion of the disulfide bridged peptide. […] Different isomers were purified and lyophilized. Dry peptides were dissolved in 100 mM phosphate buffer pH=7.6 and peptides were incubated o/n at 50° C. After HPLC purification peptides with a pE formation were selected and used in the different Galanin receptor activation assays.

GalR2 = biological target: T2, GalR2 (Homo sapiens, UniProt O43603); type: cell-based
T2 construct: expressed in transfected cells; host or cells: HEK293
T2 sequence (O43603 1-387): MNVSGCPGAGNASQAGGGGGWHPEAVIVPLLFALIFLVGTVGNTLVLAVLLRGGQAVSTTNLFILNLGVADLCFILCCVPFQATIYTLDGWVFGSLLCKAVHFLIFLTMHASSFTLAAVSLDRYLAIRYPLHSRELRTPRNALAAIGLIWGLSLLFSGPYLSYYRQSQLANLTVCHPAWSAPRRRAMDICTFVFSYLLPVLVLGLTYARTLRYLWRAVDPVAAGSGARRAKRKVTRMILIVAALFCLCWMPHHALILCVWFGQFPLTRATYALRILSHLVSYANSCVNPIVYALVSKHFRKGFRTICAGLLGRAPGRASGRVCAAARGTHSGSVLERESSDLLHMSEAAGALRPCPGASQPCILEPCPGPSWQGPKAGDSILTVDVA
Procedure: as §2
Peptide was dissolved in 0.3% ammonia. […] Different isomers were purified and lyophilized.

GalR1 [2] = biological target: T1, GalR1; test: inhibition of cAMP synthesis in CHO-K1 cells expressing GalR1 (DiscoverX kit); type: cell-based; set-up: host or cells: CHO-K1; conditions: for Ratio EC50s relative to Gal-(1-15), GalR1 cAMP inhibition: Table 2, variants chemically obtained by base-assisted sulfur extrusion, 'no' wraps to 'activity' = no activity; for cAMP production via GalR1, in words: FIG. 3
Procedure: as §1, §2, §3

[3] = test system: Galanin receptor (GalR1, GalR2); test: Galanin receptor activation assays, overall statements in words; type: cell-based; conditions: overall statement on galanin receptor activation
Procedure: as §1
Peptide was dissolved in 0.3% ammonia. Peptides were incubated o/n at 37° C. for the introduction of the lanthionine via base assisted sulfur extrusion of the disulfide bridged peptide. Different isomers could be isolated by HPLC applying the same method as was used as for the biologically produced peptides. Different isomers were purified and lyophilized. Dry peptides were dissolved in 100 mM phosphate buffer pH=7.6 and peptides were incubated o/n at 50° C. After HPLC purification peptides with a pE formation were selected and used in the different Galanin receptor activation assays.

For CC(C)C[C@H](NC(=O)[C@H](CC(C)C)NC(=O)[C@H](Cc1ccc(O)cc1)NC(=O)CNC(=O)[C@H](C)NC(=O)[C@H](C)NC(=O)[C@H](CC(N)=O)NC(=O)[C@H](CC(C)C)NC(=O)[C@H](CC(N)=O)NC(=O)[C@H](Cc1c[nH]c2ccccc12)NC(=O)[C@@H]1CCC(=O)N1)C(=O)NCC(=O)N1CCC[C@H]1C(=O)NC1CSCC(C(=O)O)NC(=O)[C@H](C(C)C)NC(=O)[C@H](C)NC1=O (single isomer, unassigned) [4178 A], the “Ratio EC50s relative to Gal-(1-15), GalR1 β-Arrestin” value (GalR1 [1]) was greater than 1000, the “Ratio EC50s relative to Gal-(1-15), GalR2 Ca efflux” value (GalR2) was 11 and the “Ratio EC50s relative to Gal-(1-15), GalR2 β-Arrestin” value (GalR2) was 137. The “Ratio EC50s relative to Gal-(1-15), GalR1 cAMP inhibition” value (GalR1 [2]) was “no”.

With CC(C)C[C@@H]1NC(=O)[C@H](CC(C)C)NC(=O)[C@H](Cc2ccc(O)cc2)NC(=O)C(NC(=O)[C@H](C)NC(=O)[C@H](C)NC(=O)[C@H](CC(N)=O)NC(=O)[C@H](CC(C)C)NC(=O)[C@@H](NC(=O)[C@H](Cc2c[nH]c3ccccc23)NC(=O)[C@@H]2CCC(=O)N2)[C@@H](C)O)CSCC(C(=O)O)NC1=O (single isomer, unassigned) [4179 B, pEWTLNAAlanYLLlan] the “activity, in words” value [3] was “high activity”, the “Ratio EC50s relative to Gal-(1-15), GalR1 β-Arrestin” value (GalR1 [1]) was 720 and the “Ratio EC50s relative to Gal-(1-15), GalR2 Ca efflux” value (GalR2) was 2.6. The “Ratio EC50s relative to Gal-(1-15), GalR2 β-Arrestin” value (GalR2) was 3.8 and the “Ratio EC50s relative to Gal-(1-15), GalR1 cAMP inhibition” value (GalR1 [2]) was “no”.

With CC(C)C[C@H](NC(=O)[C@H](CC(C)C)NC(=O)[C@H](Cc1ccc(O)cc1)NC(=O)CNC(=O)[C@H](C)NC(=O)[C@H](C)NC(=O)[C@H](CC(N)=O)NC(=O)[C@H](CC(C)C)NC(=O)[C@H](CC(N)=O)NC(=O)[C@H](Cc1c[nH]c2ccccc12)NC(=O)CN)C(=O)NCC(=O)N1CCC[C@H]1C(=O)N[C@@H](Cc1c[nH]cn1)C(=O)N[C@H]1C(=O)N[C@@H](C(C)C)C(=O)NCC(=O)N[C@H](C(=O)N[C@@H](Cc2c[nH]cn2)C(=O)N[C@@H](CCCNC(=N)N)C(=O)O)CS[C@H]1C [GalM52] the “cAMP production via GalR1, in words” value (GalR1 [2]) was “inhibit cAMP production via GalR1”.

For CC(C)C[C@H](NC(=O)[C@H](CC(C)C)NC(=O)[C@H](Cc1ccc(O)cc1)NC(=O)CNC(=O)[C@H](C)NC(=O)[C@H](C)NC(=O)[C@H](CC(N)=O)NC(=O)[C@H](CC(C)C)NC(=O)[C@H](CC(N)=O)NC(=O)[C@H](Cc1c[nH]c2ccccc12)NC(=O)CN)C(=O)NCC(=O)N[C@@H](C)C(=O)N[C@H]1C(=O)N[C@@H](C)C(=O)N[C@@H](C(C)C)C(=O)N[C@H](C(=O)N[C@@H](CC(N)=O)C(=O)N[C@@H](Cc2c[nH]cn2)C(=O)N[C@@H](CCCNC(=N)N)C(=O)O)CS[C@H]1C [GalM51], the “β-arrestin recruitment via GalR1, in words” value (GalR1 [1]; FIG. 1) was “induced β-arrestin recruitment via GalR1” and the “cAMP production via GalR1, in words” value (GalR1 [2]) was “inhibit cAMP production via GalR1”.

With CC(C)C[C@@H]1NC(=O)[C@H](CC(C)C)NC(=O)[C@H](Cc2ccc(O)cc2)NC(=O)C(NC(=O)[C@H](C)NC(=O)[C@H](C)NC(=O)[C@H](CC(N)=O)NC(=O)[C@H](CC(C)C)NC(=O)[C@@H](NC(=O)[C@H](Cc2c[nH]c3ccccc23)NC(=O)[C@@H]2CCC(=O)N2)[C@@H](C)O)CSCC(C(=O)O)NC1=O (single isomer, unassigned) [4179 A, pEWTLNAAlanYLLlan] the “Ratio EC50s relative to Gal-(1-15), GalR1 β-Arrestin” value (GalR1 [1]; Table 2, variants chemically obtained by base-assisted sulfur extrusion, 'no' wraps to 'activity' = no activity) was “no”, the “Ratio EC50s relative to Gal-(1-15), GalR2 Ca efflux” value (GalR2) was 94 and the “Ratio EC50s relative to Gal-(1-15), GalR1 cAMP inhibition” value (GalR1 [2]) was “no”.

With CC(C)C[C@H](NC(=O)[C@H](CC(C)C)NC(=O)[C@H](Cc1ccc(O)cc1)NC(=O)CNC(=O)[C@H](C)NC(=O)[C@H](C)NC(=O)[C@H](CC(N)=O)NC(=O)[C@H](CC(C)C)NC(=O)[C@H](CC(N)=O)NC(=O)[C@H](Cc1c[nH]c2ccccc12)NC(=O)[C@@H]1CCC(=O)N1)C(=O)NCC(=O)N1CCC[C@H]1C(=O)NC1CSCC(C(=O)O)NC(=O)[C@H](C(C)C)NC(=O)[C@H](C)NC1=O (single isomer, unassigned) [4178 B] the “activity, in words” value [3] was “highly active”, the “Ratio EC50s relative to Gal-(1-15), GalR1 β-Arrestin” value (GalR1 [1]) was 39 and the “Ratio EC50s relative to Gal-(1-15), GalR2 Ca efflux” value (GalR2) was 1.4. For the same molecule, the “Ratio EC50s relative to Gal-(1-15), GalR2 β-Arrestin” value (GalR2) was 2.3 and the “Ratio EC50s relative to Gal-(1-15), GalR1 cAMP inhibition” value (GalR1 [2]) was “no”.
